From PubChem BioAssay AID504484 (Southern Research Specialized Biocontainment Screening …, 2011) come the findings set out here.

In this assay the test system is human PBMC HIV-1 replication, RT activity in supernatant. Briefly: HIV-1 replication inhibition in human PBMCs, dose response, cell-based, CXCR4-tropic HIV-1, primary PBMCs (AID 504484).
Consider `Cc1c2c(=O)n(-c3nc4ccccc4s3)nc-2cc(O)n1Cc1ccncc1`, for which the IC50 is 1.81 µM.

As to `Cc1c2c(=O)n(-c3nc4ccccc4s3)nc-2cc(O)n1CCc1ccc(O)cc1`, the IC50 was 1.32 µM.

With `Cc1c2c(=O)n(-c3nc4ccccc4s3)nc-2cc(O)n1C1CC1`, the IC50 was 3.35 µM.

As to `COc1ccc(Cn2c(O)cc3nn(-c4nc5ccccc5s4)c(=O)c-3c2C)cc1`, the IC50 is 7.71 µM.

For `Cc1c2c(=O)n(-c3nc4ccccc4s3)nc-2cc(O)n1Cc1ccccc1Cl`, the half-maximal inhibitory concentration (IC50) was 7.44 µM.

Consider `Cc1c2c(=O)n(-c3nc4ccccc4s3)nc-2cc(O)n1Cc1cccnc1`, for which the IC50 was 2.86 µM.

On to `COc1ccccc1Cn1c(O)cc2nn(-c3nc4ccccc4s3)c(=O)c-2c1C`, for which the IC50 is 4.42 µM.

Turning to `Cc1c2c(=O)n(-c3nc4ccccc4s3)nc-2cc(O)n1CCc1cccs1`, the IC50 is 28.7 µM.

As for `Cc1c2c(=O)n(-c3nc4ccccc4s3)nc-2cc(O)n1Cc1cccs1`, the IC50 was 11.5 µM.

In the case of `Cc1c2c(=O)n(-c3nc4ccccc4s3)nc-2cc(O)n1CCC(C)C`, the half-maximal inhibitory concentration (IC50) was 5.68 µM.

`Cc1c2c(=O)n(-c3nc4ccccc4s3)nc-2cc(O)n1Cc1ccc(F)cc1`: the IC50 is 7.48 µM.

On to `COc1ccc(CCn2c(O)cc3nn(-c4nc5ccccc5s4)c(=O)c-3c2C)cc1`, for which the IC50 was 5.45 µM.

What is called IC50 is the concentration at which inhibition is half-maximal.
